# Source: the supplement of paper PMC11061612
# Experiments:
# AZD2811 = compound: CCN(CCO)CCCOc1ccc2c(Nc3cc(CC(=O)Nc4cccc(F)c4)[nH]n3)ncnc2c1 [AZD2811]; conditions: max 1 µM
# In short: (§1)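 Cancer cell lines were dosed for 72 hours (final DMSO typically 0.2%) after 24 hours at 37°C and 5% CO2 in 1536-well plates containing 7.5 μl DMEM/F12 or RPMI with 10% FBS. Viability came from CellTiter-Glo 2.0 luminescence, scaled between blank-well and DMSO-well means, and dose responses were fitted to a two-parameter logistic curve with a non-linear mixed effects model. The single-agent IC50 was obtained from this fit.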
# SN-38 = compound: CCc1c2c(nc3ccc(O)cc13)-c1cc3c(c(=O)n1C2)COC(=O)[C@]3(O)CC [SN-38]; conditions: max 0.3 µM
# In short: as §1
# AZD5991 = compound: Cc1c2c(nn1C)CSCc1cc(n(C)n1)CSc1cc(c3ccccc3c1)OCCCc1c(C(=O)O)n(C)c3c-2c(Cl)ccc13 [AZD5991]; conditions: max 1 µM
# In short: as §1
# Gefitinib = compound: COc1cc2ncnc(Nc3ccc(F)c(Cl)c3)c2cc1OCCCN1CCOCC1 [Gefitinib]; conditions: max 10 µM
# In short: as §1
# Lapatinib = compound: CS(=O)(=O)CCNCc1ccc(-c2ccc3ncnc(Nc4ccc(OCc5cccc(F)c5)c(Cl)c4)c3c2)o1 [Lapatinib]; conditions: max 10 µM
# In short: as §1
# AZD5153 = compound: COc1nnc2ccc(N3CCC(c4ccc(OCCN5CCN(C)C(=O)[C@H]5C)cc4)CC3)nn12 [AZD5153]; conditions: max 1 µM
# In short: as §1
# Carboplatin = compound: C1CC(C1)(C(=O)[O-])C(=O)[O-].N.N.[Pt+2] [Carboplatin]; conditions: max 10 µM
# In short: as §1
# AZD4320 = compound: CN(CC[C@H](CSC1=CC=CC=C1)NC2=C(C=C(C=C2)S(=O)(=O)NC(=O)C3=CC=C(C=C3)N4CCC(CC4)[C@H](C5=CC=CC=C5C6=CC=C(C=C6)Cl)O)S(=O)(=O)C(F)(F)F)CCO [AZD4320]; conditions: max 1 µM
# In short: as §1
# [1] = compound: O=C(Nc1ccc2[nH]nc(-c3ccncc3)c2c1)[C@@H]1CCN(CC(=O)N2CCN(c3ccc(-c4ncccn4)cc3)CC2)C1; conditions: max 5 µM
# In short: as §1
# Etoposide = compound: COc1cc([C@@H]2c3cc4c(cc3[C@@H](O[C@@H]3O[C@@H]5CO[C@@H](C)O[C@H]5[C@H](O)[C@H]3O)[C@H]3COC(=O)[C@H]23)OCO4)cc(OC)c1O [Etoposide]; conditions: max 10 µM
# In short: as §1
# 5-Fluorouracil = compound: O=c1[nH]cc(F)c(=O)[nH]1 [5-Fluorouracil]; conditions: max 20 µM
# In short: as §1
# Prexasertib = compound: COc1cccc(OCCCN)c1-c1cc(Nc2cnc(C#N)cn2)n[nH]1 [Prexasertib]; conditions: max 1 µM
# In short: as §1
# Crizotinib = compound: C[C@@H](Oc1cc(-c2cnn(C3CCNCC3)c2)cnc1N)c1c(Cl)ccc(F)c1Cl [Crizotinib]; conditions: max 10 µM
# In short: as §1
# Paclitaxel = compound: CC(=O)O[C@H]1C(=O)[C@@]2(C)[C@H]([C@H](OC(=O)c3ccccc3)[C@]3(O)C[C@H](OC(=O)[C@H](O)[C@@H](NC(=O)c4ccccc4)c4ccccc4)C(C)=C1C3(C)C)[C@]1(OC(C)=O)CO[C@@H]1C[C@@H]2O [Paclitaxel]; conditions: max 3 µM
# In short: as §1
# Gemcitabine = compound: Nc1ccn([C@@H]2O[C@H](CO)[C@@H](O)C2(F)F)c(=O)n1 [Gemcitabine]; conditions: max 0.3 µM
# In short: as §1
# AZD5363 = compound: C1CN(CCC1(C(=O)N[C@@H](CCO)C2=CC=C(C=C2)Cl)N)C3=NC=NC4=C3C=CN4 [AZD5363]; conditions: max 10 µM
# In short: as §1
# AZD7648 = compound: Cc1cc2ncnn2cc1Nc1ncc2c(n1)n(C1CCOCC1)c(=O)n2C [AZD7648]; conditions: max 10 µM
# In short: as §1
# Alisertib = compound: COc1cc(Nc2ncc3c(n2)-c2ccc(Cl)cc2C(c2c(F)cccc2OC)=NC3)ccc1C(=O)O [Alisertib]; conditions: max 10 µM
# In short: as §1
# Selumetinib = compound: Cn1cnc2c(F)c(Nc3ccc(Br)cc3Cl)c(C(=O)NOCCO)cc21 [Selumetinib]; conditions: max 10 µM
# In short: as §1
# AZD1390 = compound: CC(C)n1c(=O)n(C)c2cnc3cc(F)c(-c4ccc(OCCCN5CCCCC5)nc4)cc3c21 [AZD1390]; conditions: max 0.3 µM
# In short: as §1
# Savolitinib = compound: C[C@@H](c1ccc2nccn2c1)n1nnc2ncc(-c3cnn(C)c3)nc21 [Savolitinib]; conditions: max 1 µM
# In short: as §1
# AZD1775 = compound: C=CCn1c(=O)c2cnc(Nc3ccc(N4CCN(C)CC4)cc3)nc2n1-c1cccc(C(C)(C)O)n1 [AZD1775]; conditions: max 3 µM
# In short: as §1
# Doxorubicin = compound: COc1cccc2c1C(=O)c1c(O)c3c(c(O)c1C2=O)C[C@@](O)(C(=O)CO)C[C@@H]3O[C@H]1C[C@H](N)[C@H](O)[C@H](C)O1 [Doxorubicin]; conditions: max 1 µM
# In short: as §1
# AZD0156 = compound: CN(C)CCCOc1ccc(-c2ccc3ncc4c(c3c2)n(C2CCOCC2)c(=O)n4C)cn1 [AZD0156]; conditions: max 3 µM
# In short: as §1
# AZD8186 = compound: C[C@@H](Nc1cc(F)cc(F)c1)c1cc(C(=O)N(C)C)cc2c(=O)cc(N3CCOCC3)oc12 [AZD8186]; conditions: max 10 µM
# In short: as §1
# Trametinib = compound: CC(=O)Nc1cccc(-n2c(=O)n(C3CC3)c(=O)c3c(Nc4ccc(I)cc4F)n(C)c(=O)c(C)c32)c1 [Trametinib]; conditions: max 1 µM
# In short: as §1
# SG3199 = compound: CC1=CN2[C@@H](C1)C=NC3=CC(=C(C=C3C2=O)OC)OCCCCCOC4=C(C=C5C(=C4)N=C[C@@H]6CC(=CN6C5=O)C)OC [SG3199]; conditions: max 0.001 µM
# In short: as §1
# Palbociclib = compound: CC(=O)c1c(C)c2cnc(Nc3ccc(N4CCNCC4)cn3)nc2n(C2CCCC2)c1=O [Palbociclib]; conditions: max 10 µM
# In short: as §1
# Venetoclax = compound: CC1(C)CCC(CN2CCN(c3ccc(C(=O)NS(=O)(=O)c4ccc(NCC5CCOCC5)c([N+](=O)[O-])c4)c(Oc4cnc5[nH]ccc5c4)c3)CC2)=C(c2ccc(Cl)cc2)C1 [Venetoclax]; conditions: max 1 µM
# In short: as §1
# Dasatinib = compound: CC1=C(C(=CC=C1)Cl)NC(=O)C2=CN=C(S2)NC3=CC(=NC(=N3)C)N4CCN(CC4)CCO [Dasatinib]; conditions: max 2 µM
# In short: as §1
# Olaparib = compound: O=C(c1cc(Cc2n[nH]c(=O)c3ccccc23)ccc1F)N1CCN(C(=O)C2CC2)CC1 [Olaparib]; conditions: max 10 µM
# In short: as §1
# Taselisib = compound: Cc1nc(-c2cn3c(n2)-c2ccc(-c4cnn(C(C)(C)C(N)=O)c4)cc2OCC3)n(C(C)C)n1 [Taselisib]; conditions: max 10 µM
# In short: as §1
# SRA737 = compound: N#Cc1cnc(Nc2cc(NC[C@H]3CNCCO3)c(C(F)(F)F)cn2)cn1 [SRA737]; conditions: max 10 µM
# In short: as §1
# AZD6738 = compound: C[C@@H]1COCCN1C2=NC(=NC(=C2)C3(CC3)[S@](=N)(=O)C)C4=C5C=CNC5=NC=C4 [AZD6738]; conditions: max 10 µM
# In short: as §1
# MK-2206 = compound: NC1(c2ccc(-c3nc4ccn5c(=O)[nH]nc5c4cc3-c3ccccc3)cc2)CCC1 [MK-2206]; conditions: max 10 µM
# In short: as §1
Cell Line,"IC50, cell viability 72 h (AZD2811) [µM]","IC50, cell viability 72 h (SN-38) [µM]","IC50, cell viability 72 h (AZD5991) [µM]","IC50, cell viability 72 h (Gefitinib) [µM]","IC50, cell viability 72 h (Lapatinib) [µM]","IC50, cell viability 72 h (AZD5153) [µM]","IC50, cell viability 72 h (Carboplatin) [µM]","IC50, cell viability 72 h (AZD4320) [µM]","IC50, cell viability 72 h [1] [µM]","IC50, cell viability 72 h (Etoposide) [µM]","IC50, cell viability 72 h (5-Fluorouracil) [µM]","IC50, cell viability 72 h (Prexasertib) [µM]","IC50, cell viability 72 h (Crizotinib) [µM]","IC50, cell viability 72 h (Paclitaxel) [µM]","IC50, cell viability 72 h (Gemcitabine) [µM]","IC50, cell viability 72 h (AZD5363) [µM]","IC50, cell viability 72 h (AZD7648) [µM]","IC50, cell viability 72 h (Alisertib) [µM]","IC50, cell viability 72 h (Selumetinib) [µM]","IC50, cell viability 72 h (AZD1390) [µM]","IC50, cell viability 72 h (Savolitinib) [µM]","IC50, cell viability 72 h (AZD1775) [µM]","IC50, cell viability 72 h (Doxorubicin) [µM]","IC50, cell viability 72 h (AZD0156) [µM]","IC50, cell viability 72 h (AZD8186) [µM]","IC50, cell viability 72 h (Trametinib) [µM]","IC50, cell viability 72 h (SG3199) [µM]","IC50, cell viability 72 h (Palbociclib) [µM]","IC50, cell viability 72 h (Venetoclax) [µM]","IC50, cell viability 72 h (Dasatinib) [µM]","IC50, cell viability 72 h (Olaparib) [µM]","IC50, cell viability 72 h (Taselisib) [µM]","IC50, cell viability 72 h (SRA737) [µM]","IC50, cell viability 72 h (AZD6738) [µM]","IC50, cell viability 72 h (MK-2206) [µM]"
NAMALWA (Burkitt's Lymphoma),> 1,0.00263,0.0611,> 10,> 10,0.0431,> 10,> 1,> 5,0.272,14.5,0.0105,2.32,0.00484,0.00604,9.01,> 10,0.689,> 10,> 0.3,> 1,0.3,0.0414,> 3,7.52,> 1,> 0.001,9.88,> 1,> 2,> 10,2.02,1.67,1.14,8.2
NCI-H226 (Mesothelioma),> 1,> 0.3,> 1,> 10,> 10,> 1,> 10,> 1,> 5,> 10,> 20,> 1,> 10,> 3,> 0.3,> 10,> 10,> 10,> 10,> 0.3,> 1,> 3,> 1,> 3,> 10,> 1,> 0.001,> 10,> 1,> 2,> 10,> 10,> 10,> 10,> 10
NCI-H3118 (Head and Neck Carcinoma),> 1,0.277,> 1,1.97,4.49,0.684,> 10,> 1,0.912,5.67,> 20,0.0393,> 10,0.015,0.0641,> 10,> 10,> 10,3.09,> 0.3,> 1,0.191,> 1,> 3,> 10,0.12,> 0.001,> 10,> 1,0.309,> 10,1.06,> 10,> 10,> 10
RCC-JW (Kidney Carcinoma),> 1,0.157,> 1,> 10,7.53,> 1,> 10,0.895,> 5,> 10,> 20,> 1,> 10,0.109,0.0617,> 10,> 10,> 10,> 10,> 0.3,> 1,1.6,> 1,> 3,5.13,> 1,> 0.001,> 10,> 1,0.0851,> 10,> 10,> 10,> 10,> 10
SCC-4 (Oral Cavity Carcinoma),> 1,0.053,> 1,> 10,> 10,> 1,> 10,> 1,> 5,> 10,> 20,0.154,> 10,0.0115,0.272,> 10,> 10,9.22,> 10,> 0.3,> 1,> 3,> 1,> 3,> 10,> 1,> 0.001,> 10,> 1,> 2,> 10,1.94,> 10,9.01,> 10
